According to patent publication US20160058712A1, “3-HYDROXYPTEROSTILBENE AND THERAPEUTIC APPLICATIONS THEREOF” (priority 2014, published 2016):

Tests used:
COLO 205 cells [1] = assay: Flow cytometry analysis of subG1 cell population (PI staining); type: cell-based, human; settings: 24 h
Procedure: For subG1 cell population analysis, COLO 205 cells (2×10^5 cells/mL) were cultured in 12 well and treatment with various concentrations of pterostilbene or 3-hydroxypterostilbene for 24 h. The cells were then harvested, washed with PBS, re-suspended in 200 μL of PBS, and fixed in 800 μL of iced 100% ethanol at […]. After being left to stand overnight, the cell pellets were collected by centrifugation, re-suspended in 1 mL of hypotonic buffer (0.5% Triton X100 in PBS and 0.5 μg/mL RNase) with PI (50 μg/mL) and incubated at 37° C. in the dark for 30 min. Fluorescence emitted from the PIDNA complex was quantitated after excitation of the fluorescent dye by FACScan cytometry (Becton Dickinson, San Jose, Calif.). […] The results indicated a higher apoptotic potential of 3-hydroxypterostilbene for COLO 205 cells.

[2] = system: caspase 3 activity in COLO 205 cells; assay: Fluorogenic caspase induction assay; type: cell-based, human; settings: COLO 205, after 24 hours of treatment
Procedure: The caspase 3, 8 and 9 induction activity in protein extractions of COLO 205 cells was determined by a fluorogenic assay (Promega's CaspACE Assay System, Madison, Wis.). Briefly, 50 μg of total protein, as determined by the BioRad protein assay kit (BioRad Laboratories), was incubated with 50 μM substrate Ac-Asp-Glu-Val-Asp-methylcoumaryl-7-amine (caspase3 specific substrate), Ac-Ile-Glu-Thr-Asp-AMC ([…]) (caspase 8 specific substrate), or Ac-Leu-Glu-His-Asp-AMC (Ac-LEHD-AMC) (caspase 9 specific substrate) at 30° C. for 1 h. The release of methylcoumaryl-7-amine was measured by excitation at 360 nm and emission at 460 nm using a fluorescence spectrophotometer (ECLIPSE, Varian, Palo Alto, Calif.).

COLO 205 cells [3] = assay: Mitochondrial membrane potential by DiOC6 flow cytometry; type: cell-based, human; settings: COLO 205, 50 μM, 15 min; shifted from 224
Procedure: For mitochondrial membrane potential and ROS production, COLO 205 cells were treated as described under Example III for 15 min, and then DiOC6 [3,3′-dihexyloxacarbocyanine iodide] (40 nM) or DCFHDA [2′,7′-dichlorodihydrofluorescein diacetate] (20 μM) was added to the medium for a further 30 min at 37° C. After washing with PBS, the fluorescence intensity was determined by FAC Scan cytometry. The DiOC6 fluorescence intensity shifted to the left from 224 to 117 and 75 in pterostilbene and 3-HPT induced apoptotic COLO 205 cells, respectively. […] The role of ROS in the induction of apoptosis is well recognized. […] The imbalance of ROS concentrations could play an important role as an early mediator in 3-HPT induced apoptosis.

[4] = system: PI3K/Akt, MAPKs and mTOR signaling in COLO 205 cells; assay: Western blotting of mTOR/p70S6K, PI3K/Akt and MAPKs signaling; type: cell-based, human; settings: COLO 205, 50 μM, 24 hours
Procedure: Western blotting analysis was performed as follows. The total proteins of COLO 205 cells were extracted via addition of gold lysis buffer (50 mM TrisHCl, pH 7.4; 1 mM NaF; 150 mM NaCl; 1 mM EGTA; 1 mM phenylmethanesulfonyl fluoride; 1% NP40; and 10 μg/mL leupeptin) to the cell pellets on ice for 30 min, followed by centrifugation at 10,000×g for 30 min at 4° C. The total proteins were measured by BioRad Protein Assay (BioRad Laboratories, Munich, Germany). The samples (50 μg of protein) were mixed with 5× sample buffer containing 0.3 M TrisHCl (pH 6.8), 25% 2mercaptoethanol, 12% sodium dodecyl sulfate (SDS), 25 mM EDTA, 20% glycerol, and 0.1% bromophenol blue. The mixtures were boiled at 100° C. for 5 min and were subjected to 10% SDS polyacrylamide minigels at a constant current of 20 mA. Electrophoresis was then carried out on SDSpolyacrylaniide gels. […] The transferred proteins were visualized with an enhanced chemi-luminescence detection kit (ECL Amersham Pharmacia Biotech, Buckinghamshire, UK). The densities of the bands were quantified with a computer densitometer (AlphaImager™ 2200 System Alpha densitometer. Innotech Corporation, San Leandro, Calif.). […]
COLO 205 cells were treated with 50 μM pterostilbene or 3-hydroxypterostilbene for 24 hours. Cell lysates were prepared after 24 h treatment and the protein expression of LC3 were analyzed by Western blotting.

COLO 205 cells [5] = assay: Chloroquine (CQ) pretreatment, MTT viability and subG1 analysis; type: cell-based; settings: COLO 205, 25 μM CQ 1 h then 50 μM for 24 h
Procedure: Cells were pretreated with 25 μM CQ for 1 h before treatment with 50 μM of pterostilbene or 3-hydroxypterostilbene for 24 h. Cell viability was determined by MTT assay. SubG1 cell population (%) was analyzed and quantified after Propidium iodide (PI) staining followed by flow cytometry.

PC-3 cells [6] = assay: Flow cytometry analysis of subG1 cell population in PC-3 cells; type: cell-based, human; settings: PC-3, 0-20 μM, 48 hr
Procedure: PC-3 cells were cultured in serum-free RPMI containing 0, 2.5, 5, 10, or 20 μM of 3-HPT for 48 hr followed by flow cytometric analysis.

PC-3 cells [7] = assay: Mitochondrial membrane potential by DiOC6 flow cytometry in PC-3 cells; type: cell-based, human; settings: PC-3, 10 and 20 μM, 48 hr
Procedure: As a measure of down-stream check points in the mammalian apoptotic pathways, the potential of 3-HPT to cause mitochondrial dysfunction and activation of the caspase pathways was further evaluated. PC-3 cells were cultured in serum-free RPMI containing 0, 2.5, 5, 10, or 20 μM of 3-HPT for 48 hr, respectively. Then, cells were stained with DiOC6 and analyzed by flow cytometry.

SMILES: COc1cc(/C=C/c2ccc(O)c(O)c2)cc(OC)c1 [3-hydroxypterostilbene, 3,4-dihydroxy-3′,5′-dimethoxy-trans-stilbene]
- percentage of apoptotic COLO 205 cells (subG1) (COLO 205 cells [1]; 5 μM): 7.2%
- percentage of apoptotic COLO 205 cells (subG1) (COLO 205 cells [1]; 10 μM): 9.3%
- percentage of apoptotic COLO 205 cells (subG1) (COLO 205 cells [1]; 25 μM): 20.1%
- percentage of apoptotic COLO 205 cells (subG1) (COLO 205 cells [1]; 50 μM): 36.3%
- increase in caspase 3 activity [2]: approximately 2.4 fold
- DiOC6 fluorescence intensity (mitochondrial membrane potential) (COLO 205 cells [3]): 75
- PI3K/Akt and MAPKs signalings, phosphorylation of mTOR [4]: significantly down regulated
- cytotoxicity after CQ pretreatment (COLO 205 cells [5]): significant increase cytotoxicity
- percentage of apoptotic cells (subG1) (PC-3 cells [6]): increasing percentage of apoptotic cells over increasing concentrations
- mitochondrial membrane potential (PC-3 cells [7]): significant reduction
